Assay [1] concerns the target Human CB1R (Cannabinoid receptor 1) (Homo sapiens (Human), UniProt P21554). The experiment in a line: CB-1 in vitro cAMP assay (HTRF), inverse agonism. Type of assay: cell-based. The conditions noted are these: mean where tested more than once. The text has this:
(§1) CB1 and CB2 receptors are Gi-coupled GPCR. Activation of CB1 and CB2 receptors results in a decrease in cAMP production. An inverse agonist of the CB1 or CB2 receptor results in the opposite effect, an increase of cAMP production. The principle of this assay is based on HTRF® technology (Homogeneous Time-Resolved Fluorescence). The method is a competitive immunoassay between native cAMP produced by cells and the cAMP labeled with the fluorophore d2. The tracer binding is quantified by a Mab anti-cAMP labeled with Eu3+TBP-NHS Cryptate (supplied as part of the assay kit). The specific signal (i.e. energy transfer) is inversely proportional to the concentration of cAMP in the standard or sample.
(§2) Human CB1R (Cannabinoid receptor 1) was stably transfected in HEK-293 cells (DiscoveRx, cat: 93-0200C1). Human CB2R (Cannabinoid receptor 2) was stably transfected in HEK-293 cells (DiscoveRx, cat: 93-0201C1). Cell cultures were maintained in media: DMEM (Invitrogen Cat#12430-054) supplemented with 10% HI FBS (Invitrogen Cat#16140-071), 1% L-glutamine (Invitrogen Cat#25030-081), 0.2 mg/ml Hygromycin B (Invitrogen Cat#10687-010), 600 μg/mL G418 (Invitrogen Cat#10131-035), and 1X Penn/Strep (Invitrogen 15140-122). After cell expansion, aliquots were cryo-stored in media containing 5% DMSO (Pierce Cat#20684).
(§3) One day prior to experiments media was warmed to 37° C. and the cryo-stored cells were thawed in a 37° C. water bath. The cells were then added to media (10× volume) and the mixture was centrifuged at 1000 RPM for 5 min. The supernate was removed and the cells were re-suspended in media. A sample of the cell suspension was evaluated on a Cedex XS automated cell counter (Innovatis Systems) to determine viable cells/ml. Additional media was added to the cells to achieve a final cell density of 4E5 cells/mL. The cells were then plated into 384 well PDL white solid bottom plates (Greiner, Cat#781945) at 20 μL per well using a Multidrop (Thermo Scientific). Cells were removed from Row P (location of cAMP standards). Two columns of cells were plated into a clear bottom 384 well PDL coated plate (Greiner, Cat#781944) to view confluence the day of the assay. The cell plates were lidded and stored for 15 minutes in a hood, then transferred to an incubator (37° C., 5% CO2, 95% humidity) overnight.
(§4) DMSO was added to all wells of 384 well V bottom polystyrene plate (Greiner, Cat#781280) except to columns 1 and 13, rows 0 and P and wells M13-M23 and N13-N23. Test compounds (60 μL, 10 mM) were added to Column 1 and 13 (A1 through N1 and A13 through L13). Test compounds were serially diluted 1/3 by transferring and mixing 20 μl sample with 40 μL DMSO.
(§5) DMSO (40 μL) was added to wells of 384 well V bottom polystyrene plate: O2 through O11, M14 through M23, N14 through N23, and O14 through O23. AM630 (also known as [6-iodo-2-methyl-1-[2-(4-morpholinyl)ethyl]-1H-indol-3-yl](4-methoxyphenyl)-methanone, Cayman Chemical, Cat#10006974) (60 μL, 10 mM) was added to 01; and 1-(2,4-dichlorophenyl)-7-[(4-fluorophenyl)methylene]-4,5,6,7-tetrahydro-N-1-piperidinyl-1H-indazole-3-carboxamide (60 μL, 10 mM) was added to N13. The control was serially diluted 1/3 by transferring and mixing 20 μl sample with 40 μL DMSO. This process resulted 11 doses per control, 10 mM to […].
(§6) Cells plated the day prior to the assay in clear bottom plates were viewed on an inverse microscope to ensure confluency in the range of 60-75%. […]

The target in assay [2] is Human CB2R (Cannabinoid receptor 2) (Homo sapiens (Human), UniProt P34972). The experiment in a line: CB-2 in vitro cAMP assay (HTRF), inverse agonism. The settings on record: mean where tested more than once. Type of assay: cell-based.
Description: as §1, §2, §3, §4, §5, §6
(Cyclic AMP is a second messenger, typically raised through Gs and lowered through Gi signalling.)

We go through 22 molecules from patent US9266835B2, “Quinoline derivatives useful as CB-1 inverse agonists” (JANSSEN PHARMACEUTICA NV, priority 2014, dated 2016).

For orientation: EC50 means the concentration that produces a half-maximal response. Low readings indicate a more potent agent, high ones a less potent agent.

Chain of Human CB1R (Cannabinoid receptor 1) (P21554 whole entry): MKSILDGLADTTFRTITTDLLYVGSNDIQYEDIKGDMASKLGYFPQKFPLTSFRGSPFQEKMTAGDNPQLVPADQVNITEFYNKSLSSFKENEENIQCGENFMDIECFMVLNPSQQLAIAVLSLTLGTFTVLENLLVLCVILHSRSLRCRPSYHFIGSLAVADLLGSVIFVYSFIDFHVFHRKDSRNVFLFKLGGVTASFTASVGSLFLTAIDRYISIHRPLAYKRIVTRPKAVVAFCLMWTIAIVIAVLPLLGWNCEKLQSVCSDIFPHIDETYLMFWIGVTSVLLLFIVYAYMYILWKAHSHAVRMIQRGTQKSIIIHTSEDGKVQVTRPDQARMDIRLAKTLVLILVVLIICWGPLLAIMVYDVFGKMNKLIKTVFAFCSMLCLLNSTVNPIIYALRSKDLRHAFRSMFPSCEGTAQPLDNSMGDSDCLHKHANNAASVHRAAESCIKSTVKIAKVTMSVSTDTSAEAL
Chain of Human CB2R (Cannabinoid receptor 2) (P34972 whole entry): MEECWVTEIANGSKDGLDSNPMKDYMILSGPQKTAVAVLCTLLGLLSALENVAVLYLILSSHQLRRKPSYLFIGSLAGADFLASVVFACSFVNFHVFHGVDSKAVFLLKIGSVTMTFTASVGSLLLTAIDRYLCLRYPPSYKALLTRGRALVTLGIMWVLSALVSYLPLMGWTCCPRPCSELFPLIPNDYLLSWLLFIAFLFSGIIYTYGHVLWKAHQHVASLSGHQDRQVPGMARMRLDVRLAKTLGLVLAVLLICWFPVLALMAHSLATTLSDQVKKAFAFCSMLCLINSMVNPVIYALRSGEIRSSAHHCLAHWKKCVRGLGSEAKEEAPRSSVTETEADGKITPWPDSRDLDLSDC

For the molecule `O=c1cc(/C=C/c2cccc(F)c2)c2cc(C(c3ccc(Cl)cc3)c3ccc(Cl)cc3)ccc2[nH]1` [Compound 15, 6-[Bis(4-chlorophenyl)methyl]-4-[(E)-2-(3-fluorophenyl)ethenyl]quinolin-2(1H)-one], the EC50 was determined as 702 nM in assay [1] and 660 nM in assay [2].
As for `O=c1cc(/C=C/c2cccc(F)c2)c2cc(C(c3ccc(Cl)cc3)c3ccsc3)ccc2[nH]1` (centres unmarked) [Compound 16, 6-[(4-Chlorophenyl)(thiophen-3-yl)methyl]-4-[(E)-2-(3-fluorophenyl)ethenyl]quinolin-2(1H)-one], the EC50 in assay [1] worked out at 83 nM; in assay [2] it was 90 nM.
For `O=C(O)Cc1ccc(Nc2cc(=O)[nH]c3ccc(C(c4ccc(Cl)cc4)c4ccc(Cl)cc4)cc23)cc1` [Compound 125, [4-({6-[Bis(4-chlorophenyl)methyl]-2-oxo-1,2-dihydroquinolin-4-yl}amino)phenyl]acetic acid] the same measures were 2480 nM and over 10000 nM.
For `Clc1ccc(C(c2ccc(Cl)cc2)c2ccc3nccc(/C=C/c4ccccc4)c3c2)cc1` [Compound 503, (E)-6-(bis(4-chlorophenyl)methyl)-4-styrylquinoline] the same measures were 191 nM and over 10000 nM.
Taken in the same sequence, the figures for `O=c1cc(/C=C/c2ccc(C(F)(F)F)cc2)c2cc(C(c3ccc(Cl)cc3)c3cccs3)ccc2[nH]1` (centres unmarked) [Compound 19, 6-[(4-Chlorophenyl)(thiophen-2-yl)methyl]-4-{(E)-2-[4-(trifluoromethyl)phenyl]-ethenyl}quinolin-2(1H)-one] were 59 nM and over 10000 nM.
In the case of `OC(c1ccc(Cl)cc1)(c1ccc(Cl)cc1)c1ccc2nccc(/C=C/c3ccccc3)c2c1` [Compound 501, (E)-bis(4-chlorophenyl)(4-styrylquinolin-6-yl)methanol], the EC50 in assay [1] and in assay [2] was over 10000 nM in each case.
Regarding `O=c1cc(CCc2cccc(Cl)c2)c2cc(C(c3ccc(Cl)cc3)c3nccs3)ccc2[nH]1` (centres unmarked) [Compound 11, 4-(3-chlorophenethyl)-6-((4-chlorophenyl)(thiazol-2-yl)methyl)quinolin-2(1H)-one], the EC50 in assay [1] was 121 nM; in assay [2], over 10000 nM.
For `O=C(O)CCCCOc1cc(C(c2ccc(Cl)cc2)c2ccc(Cl)cc2)cc2c(NC3CCN(S(=O)(=O)C(F)(F)F)CC3)ccnc12` [Compound 537, 5-((6-(bis(4-chlorophenyl)methyl)-4-((1-((trifluoromethyl)sulfonyl)piperidin-4-yl)amino)quinolin-8-yl)oxy)pentanoic acid], the results for the EC50 in assay [1] and in assay [2] were 108 nM and 2380 nM, respectively.
For `COc1ccc(C(O)(c2ccc(Cl)cc2)c2ccc3[nH]c(=O)cc(NC4CCN(S(=O)(=O)C(F)(F)F)CC4)c3c2)cc1` (centres unmarked) [Compound 51, 6-[(4-chlorophenyl)(hydroxy)(4-methoxyphenyl)methyl]-4-[[1-(trifluoromethane)sulfonylpiperidin-4-yl]amino]-1,2-dihydroquinolin-2-one] the same measures were 29 nM and 8280 nM.
For `O=c1cc(NCc2ccc(C(F)(F)F)nc2)c2cc(C(c3ccc(Cl)cc3)c3ccc(Cl)cc3)ccc2[nH]1` [Compound #70, 6-(bis(4-chlorophenyl)methyl)-4-(((6-(trifluoromethyl)pyridin-3-yl)methyl)amino)quinolin-2(1H)-one] the same measures were 7 nM and over 10000 nM.
Taken in the same sequence, the figures for `O=C(c1ccccc1)N1CCC(Nc2cc(=O)[nH]c3ccc(C(c4ccc(Cl)cc4)c4ccc(Cl)cc4)cc23)CC1` [Compound 64, 4-((1-benzoylpiperidin-4-yl)amino)-6-(bis(4-chlorophenyl)methyl)quinolin-2(1H)-one] were 28 nM and 4500 nM.
With `O=C(O)COc1ccc(Nc2cc(=O)[nH]c3ccc(C(c4ccc(Cl)cc4)c4ccc(Cl)cc4)cc23)cc1` [Compound 109, 2-(4-((6-(bis(4-chlorophenyl)methyl)-2-oxo-1,2-dihydroquinolin-4-yl)amino)phenoxy)acetic acid], the concentration for a half-maximal effect (EC50) in assay [1] was 5120 nM; in assay [2], over 10000 nM.
Taken in the same sequence, the figures for `Clc1ccc(C(c2ccc3nccc(/C=C/c4ccccc4)c3c2)c2cscn2)cc1` (centres unmarked) [Compound 520, 6-[(4-Chlorophenyl)(1,3-thiazol-4-yl)methyl]-4-[(E)-2-phenylethenyl]quinoline] were 169 nM and over 10000 nM.
Regarding `O=c1cc(N2CCN(S(=O)(=O)C(F)(F)F)CC2)c2cc(C(c3ccc(Cl)cc3)c3nccs3)ccc2[nH]1` (centres unmarked) [Compound 35, 6-[(4-Chlorophenyl)(1,3-thiazol-2-yl)methyl]-4-{4-[(trifluoromethyl)sulfonyl]-piperazin-1-yl}quinolin-2(1H)-one], the EC50 in assay [1] is 322 nM; in assay [2], over 10000 nM.
Taken in the same sequence, the figures for `O=c1cc(C2=CCN(S(=O)(=O)C(F)(F)F)CC2)c2cc(C(c3ccc(Cl)cc3)c3ccc(Cl)cc3)ccc2[nH]1` [Compound 17, 6-(bis(4-chlorophenyl)methyl)-4-(1-((trifluoromethyl)sulfonyl)-1,2,3,6-tetrahydropyridin-4-yl)quinolin-2(1H)-one] were 827 nM and 80 nM.
For `O=C(O)c1cccc(CN2CCC(Nc3cc(=O)[nH]c4ccc(C(c5ccc(Cl)cc5)c5ccc(Cl)cc5)cc34)CC2)c1` [Compound 129, 3-((4-((6-(bis(4-chlorophenyl)methyl)-2-oxo-1,2-dihydroquinolin-4-yl)amino)piperidin-1-yl)methyl)benzoic acid] the same measures were 157 nM and over 10000 nM.
For `O=c1cc(NC2CCNCC2)c2cc(C(c3ccc(Cl)cc3)c3nccs3)ccc2[nH]1` (centres unmarked) [Compound 39, 6-((4-chlorophenyl)(thiazol-2-yl)methyl)-4-(piperidin-4-ylamino)quinolin-2(1H)-one] the same measures were 604 nM and over 10000 nM.
On to `O=c1cc(/C=C/c2cccc(F)c2)c2cc(C(c3ccc(Cl)cc3)c3ccc(Cl)s3)ccc2[nH]1` (centres unmarked) [Compound 30, 6-[(4-Chlorophenyl)(5-chlorothiophen-2-yl)methyl]-4-[(E)-2-(3-fluorophenyl)ethenyl]quinolin-2(1H)-one], for which the EC50 in assay [1] is 1380 nM; in assay [2], over 10000 nM.
For `CCS(=O)(=O)N1CCC(Nc2cc(=O)[nH]c3ccc(C(c4ccc(Cl)cc4)c4ccc(Cl)cc4)cc23)CC1` [Compound #56, 6-(bis(4-chlorophenyl)methyl)-4-((1-(ethylsulfonyl)piperidin-4-yl)amino)quinolin-2(1H)-one] the same measures were 22 nM and over 10000 nM.
As to `CCOC(=O)CCCCOc1cc(C(c2ccc(Cl)cc2)c2ccc(Cl)cc2)cc2c(NC3CCN(S(=O)(=O)C(F)(F)F)CC3)ccnc12` [Compound 540, ethyl 5-((6-(bis(4-chlorophenyl)methyl)-4-((1-((trifluoromethyl)sulfonyl)piperidin-4-yl)amino)quinolin-8-yl)oxy)pentanoate], the EC50 in assay [1] is 81 nM; in assay [2] it was 7100 nM.
Regarding `COC(=O)Cc1ccc(Nc2cc(=O)[nH]c3ccc(C(c4ccc(Cl)cc4)c4ccc(Cl)cc4)cc23)cc1` [Compound 124, Methyl [4-({6-[bis(4-chlorophenyl)methyl]-2-oxo-1,2-dihydroquinolin-4-yl}amino)phenyl]acetate], the EC50 in assay [1] was 27 nM; in assay [2], over 10000 nM.
For `O=c1cc(NC2CCC(C(F)(F)F)CC2)c2cc(C(c3ccc(Cl)cc3)c3ccc(Cl)cc3)ccc2[nH]1` (centres unmarked) [Compound 88, 6-[Bis(4-chlorophenyl)methyl]-4-{[4-(trifluoromethyl)cyclohexyl]-amino}quinolin-2(1H)-one] the same measures were 111 nM and 3700 nM.
